Values of other authors as cited in patent US20250295562A1, “Formulation for treatment of melasma, hyperpigmentation, and dark spots” (priority 2024, published 2025).

What was measured:
[1] = clinical

Row | Structure (SMILES) | bactericidal activity (bacteria) | anticollagenase inhibitory activity (collagenase) | anti-acne effect [1]
1 | CC(C)=CCC1=C(O)C(C(=O)CC(C)C)=C(O)C(CC=C(C)C)(CC=C(C)C)C1=O [lupulone] | exhibited bactericidal activity | moderate to strong | –
2 | COc1cc(O)c(CC=C(C)C)c(O)c1C(=O)/C=C/c1ccc(O)cc1 [xanthohumol] | exhibited bactericidal activity | moderate to strong | –
3 | CCCCC/C=C\C/C=C\CCCCCCCC(=O)OCC [Ethyl Linoleate, Ethyl linoleate] | – | – | effective anti-acne agent
